Measurements reported in US20080112954A1, “Method for treating chronic pain” (Parker College of Chiropractic, priority 2006, published 2008).

Key:
[1] = tested on: synapses between C-fibers and DH neurons; test: LTP of C-fiber evoked field potentials in spinal dorsal horn in vivo; set-up: species or system rat; conditions: for LTP produced by 4 high-frequency trains of nerve shock: naïve animals
Method: Under anesthesia, a cannula was inserted into the trachea to allow artificial ventilation and another cannula containing heparin (0.03%) saline was inserted into the left carotid artery to monitor the blood pressure. The rat was placed in a stereotaxic frame, then was paralyzed by an intravenous injection of pancuronium bromide (4 mg/kg) and artificially ventilated with air at a tidal volume of 15 ml/kg. Adequate anesthesia was confirmed intermittently during neuromuscular blockade in terms of the following two criteria: (1) the pupils were constricted; (2) the blood pressure remained stable during noxious stimulation. Core body temperature was monitored through a thermister probe inserted into the rectum and maintained at 37.5±0.5° C. by means of a feedback-controlled heating pad under the ventral surface of the abdomen. In each experiment phosphate-buffered saline (PBS) was intermittently administered via a jugular vein cannula to maintain hydroelectrolyte balance. A laminectomy was performed to expose the lumbar spinal cord. The dura mater was then removed the exposed cord was immediately covered with warm agar (2% in saline). After the agar hardened, a small hole was made above the recording site for application of drug or vehicle. At the end of each experiment, the animals were killed by an overdose of intravenous pentobarbital (200 mg/kg).
Long-term potentiation (LTP) tests were performed on naïve rats. The protocol for the electrophysiological recordings of C-fiber evoked field potentials was similar to that described previously (Liu and Sandkuhler, 1998). The recordings were made at depths of 200-500 μm from the surface of the spinal cord between L4-L5 with glass capillary microelectrodes (DC resistances 3-5 MΩ filled with 2 M NaCl). The sciatic nerve was stimulated by a bipolar platinum hook electrode. […] Examples of the C-fiber-evoked field potentials given in each figure were recorded before (a) and after (b) tetanic stimulation (indicated by the arrow therein) or ephrinB1-Fc. […]

naïve rats = test: Thermal sensitivity of naïve rats after intrathecal EphB receptor activators; format: in vivo, rat; conditions: prior injection of 20 μg

C[C@]12N[C@H](Cc3ccccc31)c1ccccc12 [MK-801, dizocilpine]
LTP produced by 4 high-frequency trains of nerve shock ([1]; post-treatment): not interrupted | LTP induced by the combination of ephrinB1-Fc and 2 tetanic trains ([1]; pre-treatment, n=5): blocked | LTP produced by 4 high-frequency trains of nerve shock ([1]; topical pre-treatment): blocked | thermal hypersensitivity induced by injection of ephrinB1-Fc or ephrinB2-Fc (naïve rats): prevented
